Data as given in PubChem BioAssay (NCI).
Where “and” joins values, the source holds several entries; their conditions need not be identical. Equal entries are not always repeated.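 Cultured in 96-well plates, cells were exposed to test compound for 48 hours across five concentrations. Abbreviation: GI50, concentration required for 50% inhibition of growth. TGI denotes the concentration required for complete inhibition of growth.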

How the values were obtained:
Test in all cases: NCI-60 cell line screen, 48 h
HCC-2998 colon = test system: HCC-2998 colon
HCT-116 colon = test system: HCT-116 colon
K-562 leukemia = test system: K-562 leukemia
RXF 393 renal = test system: RXF 393 renal
CAKI-1 renal = test system: CAKI-1 renal
OVCAR-4 ovarian = test system: OVCAR-4 ovarian
UO-31 renal = test system: UO-31 renal
SR leukemia = test system: SR leukemia
CCRF-CEM leukemia = test system: CCRF-CEM leukemia
A498 renal = test system: A498 renal

SMILES	GI50 (HCC-2998 colon)	TGI (HCC-2998 colon)	GI50 (HCT-116 colon)	TGI (HCT-116 colon)	GI50 (K-562 leukemia)	TGI (K-562 leukemia)	GI50 (RXF 393 renal)	TGI (RXF 393 renal)	GI50 (CAKI-1 renal)	TGI (CAKI-1 renal)	GI50 (OVCAR-4 ovarian)	TGI (OVCAR-4 ovarian)	GI50 (UO-31 renal)	TGI (UO-31 renal)	TGI (SR leukemia)	TGI (CCRF-CEM leukemia)	TGI (A498 renal)	GI50 (CCRF-CEM leukemia)	GI50 (A498 renal)	GI50 (SR leukemia)
CC(C)c1ccc2c(c1)CC[C@@H]1[C@@](C)(C(=O)O)CCC[C@]21C	6.07 µM	22.3 µM	6.9 µM	19.8 µM	2.5 µM	9.2 µM	0.0244 µM	0.727 µM	2.93 µM	12 µM	4.23 µM	10.8 µM	2.76 µM	12 µM	–	–	–	–	–	–
CCOC(=O)C1(C#N)C(c2ccccc2)CC(O)(c2ccc(OC)cc2)C(C(=O)c2ccc(OC)cc2)C1c1ccccc1 (stereo unspecified)	–	> 100 µM	–	> 100 µM	–	> 100 µM	–	> 100 µM	–	> 100 µM	–	> 100 µM	–	> 100 µM	> 100 µM	> 100 µM	–	–	–	–
CN(C)c1ccc(C(C=C2c3ccccc3Sc3ccccc32)=C(C#N)C#N)cc1	–	> 100 µM	–	> 100 µM	–	> 100 µM	–	> 100 µM	–	> 100 µM	–	50.1 µM	–	> 100 µM	–	> 100 µM	> 100 µM	–	–	–
CC(C)(C)CC(C)(C)c1cc2c(O)c(c1)Cc1cc(C(C)(C)CC(C)(C)C)cc(c1O)Cc1cc(C(C)(C)CC(C)(C)C)cc(c1O)Cc1cc(C(C)(C)CC(C)(C)C)cc(c1O)C2	–	> 100 µM	–	> 100 µM	–	> 100 µM	–	> 100 µM	–	–	–	> 100 µM	–	> 100 µM	–	> 100 µM	–	–	–	–
CCN(CC)CCOc1ccc(-c2nc3cc(Cl)ccc3s2)cc1	–	–	1.25 µM	2.5 µM	1.26 µM	> 100 µM	1.01 µM	2.77 µM	1.47 µM	2.84 µM	1.65 µM	7.21 µM	1.66 µM	3.37 µM	–	3.14 µM	3.83 µM	0.565 µM	1.66 µM	–
COC(=O)C(=Cc1cc(OC)ccc1OC)C(=O)OC	–	34 µM	–	–	–	53.6 µM	–	31.3 µM	–	43.3 µM	–	51.6 µM	–	50.9 µM	–	61.8 µM	–	–	–	–
Cc1ccc(Cc2c(=O)[nH]nc3ccccc23)cc1	–	> 100 µM	–	> 100 µM	–	> 100 µM	–	–	–	> 100 µM	–	> 100 µM	–	> 100 µM	–	> 100 µM	> 100 µM	–	–	–
N#Cc1c(NN)n(C2OC(CO)C(O)C2O)c2ncnc(N)c12 (stereo unspecified)	0.292 µM	2.41 µM	–	–	0.0181 µM	0.176 µM	0.0398 µM	0.415 µM	0.0619 µM	0.639 µM	0.0538 µM	3.24 µM	0.0417 µM	0.774 µM	0.0815 µM	0.605 µM	–	0.13 µM	–	0.0272 µM
NC(=O)NC1C(c2ccccc2)=C1c1ccccc1	–	35.8 µM	–	38.7 µM	–	43.1 µM	–	14.8 µM	–	> 100 µM	–	30.7 µM	–	28.8 µM	–	> 100 µM	39.9 µM	–	–	–
N#Cc1nc(Nc2cccc3ccccc23)sc1N	–	41.2 µM	–	> 100 µM	–	> 100 µM	–	–	–	> 100 µM	–	> 100 µM	–	49 µM	27.8 µM	–	–	–	–	–
CCOC(=O)CCCn1c(SC)nc2[nH]cc(-c3ccccc3)c2c1=O	> 100 µM	> 100 µM	14.1 µM	34 µM	12.7 µM	56.9 µM	18.2 µM	49 µM	15.8 µM	45.1 µM	31.4 µM	80.8 µM	19.9 µM	57.9 µM	–	54.5 µM	63.3 µM	3.01 µM	16.5 µM	–
O=C(/C=C/c1ccccc1O)c1ccccc1O	–	> 100 µM	–	> 100 µM	–	> 100 µM	–	> 100 µM	–	> 100 µM	–	> 100 µM	–	> 100 µM	–	> 100 µM	> 100 µM	–	–	–
CN(C)c1nc2ccccc2[nH]1	–	> 100 µM	–	–	–	> 100 µM	–	> 100 µM	–	> 100 µM	–	> 100 µM	–	> 100 µM	–	> 100 µM	–	–	–	–
COC(=O)c1cc2c(s1)C(=O)c1ccccc1-2	–	> 100 µM	–	> 100 µM	–	> 100 µM	–	> 100 µM	–	> 100 µM	–	> 100 µM	–	> 100 µM	–	> 100 µM	> 100 µM	–	–	–
O=C(OC(CNc1cc(=O)n(Cc2ccccc2)c(=O)n1Cc1ccccc1)CN1CCCC1)c1ccccc1 (stereo unspecified)	> 100 µM	> 100 µM	56.8 µM	> 100 µM	92.1 µM	> 100 µM	76.1 µM	> 100 µM	> 100 µM	> 100 µM	> 100 µM	> 100 µM	> 100 µM	> 100 µM	–	> 100 µM	> 100 µM	23.7 µM	> 100 µM	–
S=C(Nc1ccccc1)N(/N=C/C=C/c1ccccc1)c1nnc(-c2ccccc2)c(-c2ccccc2)n1	–	> 100 µM	–	–	–	> 100 µM	–	> 100 µM	–	> 100 µM	–	> 100 µM	–	> 100 µM	–	> 100 µM	> 100 µM	–	–	–
O=C(CCn1[nH]c(=O)c(Cl)c(Cl)c1=O)NO	–	> 100 µM	–	–	–	> 100 µM	–	> 100 µM	–	> 100 µM	–	> 100 µM	–	> 100 µM	–	> 100 µM	> 100 µM	–	–	–
COc1cc(C(Cc2ccccc2)NC(C)=O)oc(=O)c1 (stereo unspecified)	–	> 100 µM	–	–	–	> 100 µM	–	> 100 µM	–	> 100 µM	–	> 100 µM	–	> 100 µM	–	> 100 µM	> 100 µM	–	–	–
Cn1c2ccccc2c2c3c(c4c5cc(Br)ccc5n(C)c4c21)C(=O)N(O)C3=O	1.01 µM	> 100 µM	–	–	0.197 µM	> 100 µM	0.217 µM	0.703 µM	–	–	–	–	–	–	0.584 µM	0.185 µM	–	0.0323 µM	–	0.0156 µM
CC(C)CCN1c2nc(Nc3cc(F)c(O)c(F)c3)ncc2N(C)C(=O)C1C (stereo unspecified)	3.54 µM	17.1 µM	4.37 µM	30.1 µM	2.63 µM	> 33.3 µM	7.94 µM	31.4 µM	2.84 µM	> 77.1 µM	18.6 µM	> 100 µM	0.939 µM	16.8 µM	–	23.6 µM	54.6 µM	1.52 µM	18.3 µM	–
Cc1ccc(S(=O)(=O)N(CC(=O)O)c2ccccc2)cc1	–	> 100 µM	–	–	–	> 100 µM	–	> 100 µM	–	> 100 µM	–	> 100 µM	–	> 100 µM	–	> 100 µM	> 100 µM	–	–	–
Cc1nn(-c2ccccc2)c2nc(N3CCOCC3)nnc12	–	> 100 µM	–	> 100 µM	–	> 100 µM	–	> 100 µM	–	> 100 µM	–	> 100 µM	–	> 100 µM	–	> 100 µM	> 100 µM	–	–	–
O=c1c2sc(=S)n(-c3ccc(F)cc3)c2ncn1Cc1ccc(F)cc1F	> 100 µM	> 100 µM	81.8 µM	> 100 µM	> 100 µM	> 100 µM	> 100 µM	> 100 µM	37.7 µM	> 100 µM	> 100 µM	> 100 µM	> 100 µM	> 100 µM	–	> 100 µM	> 100 µM	> 100 µM	> 100 µM	–
CCCCCCCCCCCCOC1C(C(COC2OC(C3COC(C)(C)O3)C3OC(C)(C)OC23)NC(=O)Nc2ccc(C(=O)O)cc2)OC2OC(C)(C)OC21 (stereo unspecified)	2.05 µM	3.82 µM	2.87 µM	10.8 µM	3.79 µM	> 100 µM	2.26 µM	4.05 µM	5.45 µM	17.6 µM	3.56 µM	15.3 µM	3.99 µM	13.3 µM	–	0.577 µM	8.53 µM	0.306 µM	2.48 µM	–
Cc1cc(N)c(C)c2c1[nH]c1ccc(O)cc12	–	> 100 µM	–	> 100 µM	–	> 100 µM	–	–	–	> 100 µM	–	> 100 µM	–	> 100 µM	> 100 µM	91.5 µM	–	–	–	–
Cn1cc(CO)c2c1C(=O)C=C(N1CC1)C2=O	< 0.0122 µM	0.049 µM	< 0.0106 µM	–	0.0224 µM	11.1 µM	< 0.0305 µM	0.914 µM	< 0.01 µM	< 0.0125 µM	0.0256 µM	0.0917 µM	–	–	0.0145 µM	11.2 µM	–	0.26 µM	–	< 0.01 µM
Cc1nc2c(-c3cnc(N)nc3)nc(N3CCOCC3)nc2n1C(C)C	–	4.27 µM and 24.8 µM	0.254 µM and 0.289 µM	> 100 µM	1 µM and 0.661 µM	> 100 µM	–	0.611 µM and 0.315 µM	–	1.42 µM and 2.94 µM	–	1.99 µM and 0.786 µM	–	0.452 µM and 0.401 µM	–	–	0.156 µM and 0.0587 µM	–	–	–
Cc1ccc(NC(=O)C(=O)C(C(=O)c2ccc3ccccc3c2)C2OC(=O)c3ccccc32)cc1C (stereo unspecified)	–	18.9 µM	–	25.5 µM	–	59.7 µM	–	–	–	43.7 µM	–	40.6 µM	–	27.6 µM	–	51.3 µM	31 µM	–	–	–
CCOc1ccccc1C=C1c2ccccc2C(=O)c2ccccc21	–	21.9 µM	–	29.5 µM	–	> 100 µM	–	5.96 µM	–	6.58 µM	–	> 100 µM	–	13.6 µM	–	35.5 µM	> 100 µM	–	–	–
COc1ccc(C2C(Cl)C(=O)N2n2cnc3ccccc3c2=O)cc1 (stereo unspecified)	–	> 100 µM	–	> 100 µM	–	> 100 µM	–	> 100 µM	–	> 100 µM	–	> 100 µM	–	> 100 µM	> 100 µM	–	–	–	–	–
